Results taken from PubChem BioAssay AID1996.
≈ marks a conversion by molar mass, not a printed value.

conditions: buffer; pH 7.4; 200.0 µM

solubility kinetic [µg/mL]	SMILES
1.2 (≈ 3.75 µM)	Cc1cc(C)cc(C(=O)Nc2cc3c4c(c2)CC(=O)N4CCC3)c1
20.8 (≈ 70.9 µM)	Cc1cc(C(=O)Nc2sccc2C#N)c2ccccc2n1
14.9 (≈ 48.9 µM)	S=C(NCCc1cccc(Cl)c1)NCc1ccccc1
> 45.1	O=S(=O)(c1ccc(-c2ccon2)s1)N1CCOCC1
> 49.6	Nc1nnc(SCC(=O)OCC(=O)NC2CCCCC2)s1
< 0.6	COc1cccc(NC(=O)c2cc3ccccc3oc2=O)c1
< 0.7	COc1ccc(N/C=C/C(=O)c2ccc(OC)c(OC)c2)cc1
34.3 (≈ 125 µM)	C/C=C(\C)CN1CCCC(CO)(Cc2ccccc2)C1 (configuration not stated)
27.1 (≈ 103 µM)	COC(=O)c1ccc(COC(=O)c2cccn2C)o1
> 45.3	O=C(COC(=O)Cc1ccc(Cl)cc1Cl)NC1CC1
38.4 (≈ 147 µM)	CN(C(=O)c1ccc2c(c1)OCO2)C1CCCCC1
2.8 (≈ 7.46 µM)	O=C(NC(=O)c1ccc(C(F)(F)F)cc1)Nc1ccc(-c2cnco2)cc1
> 54.5	O=C(/C=C/c1ccco1)N(Cc1ccc(F)cc1)C1CCS(=O)(=O)C1 (configuration not stated)
> 31.2	CNC(=S)NCCCc1ccccc1
> 40.8	CC(=O)CN1C(=O)NC2(CCCc3ccccc32)C1=O (configuration not stated)
46.1 (≈ 143 µM)	O=C1CC(NCCc2ccccc2)C(=O)N1CCc1ccccc1 (configuration not stated)
3.8 (≈ 10.1 µM)	Cn1c(SCC(=O)Nc2sccc2C(N)=O)nc2ccccc2c1=O
> 41	O=C(O)c1ccc(NCc2cccnc2)c([N+](=O)[O-])c1
8.1 (≈ 16.3 µM)	COc1ccccc1NS(=O)(=O)c1cc(NC(=O)COc2ccccc2)ccc1N1CCOCC1
7.3 (≈ 21.2 µM)	O=C(CN1CCOCC1)Nc1ccc([N+](=O)[O-])cc1Br
> 47.6	CC(CCc1ccccc1)NC(=O)COC(=O)c1cccs1 (configuration not stated)
> 46.1	CCCCCCOc1ccc(C(CC(=O)NC)C(=O)O)cc1 (configuration not stated)
> 40.8	O=C(NCc1cccnc1)Nc1cccc([N+](=O)[O-])c1

solubility kinetic [µg/mL]	SMILES
> 46.1	CCC(C)C(NC(N)=O)C(=O)Nc1ccc(C(=O)OC)cc1 (configuration not stated)
33.1 (≈ 117 µM)	O=C(OCC(=O)N1CCc2ccccc21)c1ccncc1
> 35.9	Cc1ccc(C(=O)OCC(=O)NC2CC2)s1
0.7 (≈ 2.35 µM)	CCc1ccccc1NC(=O)NCc1ccc2c(c1)OCO2
6.2 (≈ 20.8 µM)	Nc1cc(=O)[nH]c(SCCSc2ccc(F)cc2)n1
4.4 (≈ 10.4 µM)	O=C(CC1SC(N2CCOCC2)=NC1=O)Nc1ccc(Cl)c(C(F)(F)F)c1 (configuration not stated)
> 56.3	COc1cc2c(C(=O)NCCN(C)C)cn(CC(C)C)c(=O)c2cc1OC
41.1 (≈ 116 µM)	O=C(NC(N1CCOCC1)C(Cl)(Cl)Cl)c1ccc(F)cc1 (configuration not stated)
36.9 (≈ 131 µM)	CCCCN(C(=S)SC)C1CCS(=O)(=O)C1 (configuration not stated)
> 68.5	CC(OC(=O)c1cc(S(=O)(=O)N2CCOCC2)ccc1F)C(=O)NCC1CCCCC1 (configuration not stated)
34 (≈ 113 µM)	CCCNC(=O)CN1CCC(c2nc3ccccc3[nH]2)CC1
25.2 (≈ 115 µM)	CCN(C(=O)C1CCCO1)c1ccccc1 (configuration not stated)
> 51.5	CN(CC(=O)NCCc1ccccc1)CC(=O)Nc1cccc(F)c1
> 74.8	O=C(COC(=O)[C@@H]1CC(O)CN1S(=O)(=O)c1ccc2c(c1)OCCO2)Nc1cc(F)ccc1F (some centres not stated)
1.3 (≈ 4.3 µM)	CCOc1ncccc1C(=O)OCc1ccc([N+](=O)[O-])cc1
32.6 (≈ 122 µM)	COc1ccc(C(=O)OCC(=O)NC2CC2)cc1F
40.5 (≈ 125 µM)	CC(=O)N1CCN(c2ccc(NC(=O)c3ccccc3)cc2)CC1
1.2 (≈ 4.5 µM)	CN=C1S/C(=C\c2ccc(Cl)cc2)C(=O)N1C
> 47.8	COc1ccc(NC(=O)CN(C)C(=O)CC2CCCCC2)cc1
33.4 (≈ 122 µM)	CCCN1CCC(NC(=O)Cc2ccccc2C)CC1
> 52.7	O=C(CCc1nc2ccccc2s1)N1CCN(c2ccccc2)CC1
3.6 (≈ 12.4 µM)	Cc1cc(C)c(C)c(S(=O)(=O)Nc2cccnc2)c1C

SMILES	solubility kinetic [µg/mL]
O=C(O)C(=O)O.c1ccc(CNC23CC4CC(CC(C4)C2)C3)nc1	45.8
OC(CN1CCC(c2c[nH]c3ccccc23)CC1)C(F)(F)F (configuration not stated)	> 46.9
